The assay has as its target T1, IP6KA^M85V (Entamoeba histolytica, UniProt N9UNA8, M85V).
T1 sequence (N9UNA8 1-270 M85V): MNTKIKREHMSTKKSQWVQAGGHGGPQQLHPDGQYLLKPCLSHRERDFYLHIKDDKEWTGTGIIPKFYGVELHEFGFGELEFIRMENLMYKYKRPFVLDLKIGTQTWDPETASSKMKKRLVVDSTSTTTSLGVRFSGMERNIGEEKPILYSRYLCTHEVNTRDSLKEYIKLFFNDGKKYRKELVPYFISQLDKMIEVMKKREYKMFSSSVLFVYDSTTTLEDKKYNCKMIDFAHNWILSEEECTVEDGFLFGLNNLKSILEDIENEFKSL
Put plainly: NMR activity assay for EhIP6KA constructs. It counts as biochemical.

Consider one molecule from publication PMC10578927, “An unconventional gatekeeper mutation sensitizes inositol hexakisphosphate kinases to an allosteric inhibitor” (eLife, 2023).

For the molecule `O=C(O)c1ccc2c(c1)C(=O)N(c1ccc(-c3nc4ccc(N5C(=O)c6ccc(C(=O)O)cc6C5=O)cc4[nH]3)cc1)C2=O` [FMP-201300], the midpoint of inhibition, the IC50, lay at 780 nM.
